Experimental data published in US20260167614A1, “IDENTIFICATION OF SMALL MOLECULES THAT RECRUIT AND ACTIVATE RNASE L” (UNIVERSITY OF FLORIDA RESEARCH FOUNDATION, INCORPORATED, priority 2022, published 2026).

What was measured:
[1] = molecular target: T1, pre-miR-21 mutant and RNase L (Homo sapiens, UniProt Q05823, H672N); assay: Co-immunoprecipitation of mutant pre-miR-21 and RNase L; format: binding; details: base paired mutant pre-miR-21, inactive RNase L
T1 construct: GST (N, cleaved yes); made in house; host or cells: BL21 AI Escherichia coli
T1 sequence (Q05823 1-741 H672N): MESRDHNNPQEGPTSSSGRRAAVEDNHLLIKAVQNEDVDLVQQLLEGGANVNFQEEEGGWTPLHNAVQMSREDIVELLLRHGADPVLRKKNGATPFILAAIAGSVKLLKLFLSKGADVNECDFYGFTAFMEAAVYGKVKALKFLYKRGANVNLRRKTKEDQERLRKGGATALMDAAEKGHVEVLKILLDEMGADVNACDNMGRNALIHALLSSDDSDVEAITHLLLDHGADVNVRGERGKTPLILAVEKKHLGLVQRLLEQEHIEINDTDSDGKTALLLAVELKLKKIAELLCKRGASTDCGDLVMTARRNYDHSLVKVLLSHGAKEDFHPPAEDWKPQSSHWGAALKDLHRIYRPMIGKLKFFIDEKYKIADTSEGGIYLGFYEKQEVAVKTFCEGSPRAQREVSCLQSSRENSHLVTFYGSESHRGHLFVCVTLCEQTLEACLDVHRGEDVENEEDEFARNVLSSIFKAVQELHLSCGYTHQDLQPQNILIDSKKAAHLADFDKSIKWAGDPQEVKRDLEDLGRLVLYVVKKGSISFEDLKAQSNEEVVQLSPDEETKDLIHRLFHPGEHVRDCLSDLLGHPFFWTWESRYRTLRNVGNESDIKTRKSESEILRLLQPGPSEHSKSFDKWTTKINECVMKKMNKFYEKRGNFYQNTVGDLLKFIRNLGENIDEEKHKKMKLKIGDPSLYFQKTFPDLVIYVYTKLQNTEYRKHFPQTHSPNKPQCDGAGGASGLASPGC
Experimental: Co-Immunoprecipitation of pre-miR-2I and RNase L. Approximately 20,000 cpm of 32P 5′-end labeled WT or mutant pre-miR-21 or an RNA construct where the A-bulge was mutated to a base pair (5′-[…] UGGGCUGU-3′) was folded in 1× RNase L Assay Buffer for 1 min at 95° C. and cooled on ice for 10 min. Following cooling, β-mercaptoethanol (7 mM), ATP (50 μM), and MgCl2 (1 mM) were added to the solution. The solution was aliquoted, and compounds were incubated in solution for 15 min (1% DMSO final concentration). […] Beads were then washed with 1×PBS supplemented with 0.02% (v/v) Tween-20. Radioactive signal in the supernatant and associated with the beads was quantified by a Beckman Coulter LS6500 Liquid Scintillation Counter. Relative RNA enrichment was calculated by comparing the radioactive signal associated with beads compared to the total radioactive signal from the beads plus the supernatant.

[2] = tested on: MDA-MB-231 cells modified with CRISPR and a control guide RNA; assay: Global proteomics analysis via LC-MS/MS; format: cell-based
Experimental: RiboTAC 7 was then assessed for its ability to affect protein levels by deactivation of a miR-21-mediated cancer circuit, i.e., derepression of PDCD4. […] Proteome-wide analysis was also completed to study the effects of 7 and a locked nucleic acid (LNA) oligonucleotide that targets miR-21-5p on the proteome. The concentrations tested of both provided similar activity (5 nM of 7 and 100 nM of the LNA), as assessed by their effect on PDCD4 levels, ˜40% enhancement. […] Neither modality affected proteins that are direct targets of miRNA let-7b-5p, further supporting that RiboTAC 7 is selectively deactivating a miR-21-mediated cancer circuit in cells (FIG. 11C-11D).
Global proteomics analysis via LC-MS/MS. MDA-MB-231 cells modified with CRISPR and a control guide RNA were treated as described in “Cell Culture.” After treatment, the medium was removed, and the cells were washed with 1×DPBS. After washing, the cells were scraped from the culture plates, and the resulting suspension was centrifuged. Cell pellets were resuspended in 1×DPBS, and protein concentration was determined using a Pierce Micro BCA Protein Assay Kit (ThermoScientific). Urea (9 M in 100 mM NH4HCO3, pH 8) was added to a final concentration of 6 M to 30 μg lysate (15 μL prepared in 1×DPBS). […] Peptides were desalted over a self-packed C18 spin column, dried, and analyzed via LC-MS/MS. […]

[3] = RiboTAC cellular uptake quantification; format: in vitro ADME; details: human, MDA-MB-231 cells; 5 μM in culture medium
Experimental: (§1) A time-course for RiboTAC degradation of pre-miR-21 was completed and compared to its cellular permeability. […] Additionally, degradation of pre-miR-21 is first detectable after 48 h of treatment with 7 (FIG. 10B).
(§2) RiboTAC Cellular Uptake Quantification. MDA-MB-231 cells were cultured as described in “Cell Culture” with a final cell density of 13,500 cells per well. Cells were treated with 7 (5 μM) for 0, 0.25, 0.5, 0.75, 1, 2, 3, 6, 12, 24, and 48 hours. Following treatment, cells were rapidly washed with 1×PBS to remove any unincorporated compound. Cells were then detached using 75 μl trypsin, immediately homogenized and flash frozen. The cell homogenate was analyzed using a Sciex 6500 mass spectrometer operated in multiple reaction monitoring mode with the transition m/z=1078.3/900.3. Homogenate drug levels were determined by comparison to a standard curve prepared in untreated cell homogenate. Calculated concentrations, (ng drug)/(ml homogenate) or μM drug inside cell, were fit to a one-phase association model using GraphPad Prism.

MDA-MB-231 cells = assay: RiboTAC cellular uptake quantification; format: in vitro ADME
Experimental: as §1, §2

- co-immunoprecipitation of RNA with RNase L [1]: not its base paired mutant
- half-life at 5 μM [3]: 2.4 h
- time to reach plateau of cellular accumulation (MDA-MB-231 cells; 5 μM in culture medium): about 8 h
- concentration inside cells (MDA-MB-231 cells; after 48 h treatment with 5 μM in culture medium): 3.6 ± 1.2 µM
SMILES: CNC(=O)[C@H](c1ccccc1)N(C)Cc1ccc(-c2cccc(-c3sccc3NC(=O)CCOCCOCCOCCC(=O)NCCN3CCN(c4ccc5nc(-c6c(N)c7c(F)cccc7[nH]c6=O)[nH]c5c4)CC3)c2)cc1 [RiboTAC 7, (S)—N-(2-(4-(2-(4-amino-5-fluoro-2-oxo-1,2-dihydroquinolin-3-yl)-1H-benzo[d]imidazol-6-yl)piperazin-1-yl)ethyl)-3-(2-(2-(3-((2-(4′-((methyl(2-(methylamino)-2-oxo-1-phenylethyl)amino)methyl)-[1,1′-biphenyl]-3-yl)thiophen-3-yl)amino)-3-oxopropoxy)ethoxy)ethoxy)propanamide]
- abundance of miR-21-repressed proteins (cumulative distribution analysis) ([2]; proteins encoded by mRNAs with a miR-21-5p binding site in 3′ UTR): statistically significant increase
- proteins affected of the 3176 proteins detected ([2]; proteome-wide, 7 and LNA at concentrations of similar activity): 0.6%
